Measurements from the NIST ThermoML archive (doi:10.1016/j.jct.2016.09.013).

Settings: Liquid; for viscosity: Concentric cylinders viscometry

CCCCn1cc[n+](C)c1.COP(=O)([O-])OC [1-butyl-3-methyl-1H-imidazolium dimethylphosphate]
101.33 kPa
Settings	viscosity [mPa·s]
293.15 K	760.4
303.15 K	369.3
313.15 K	198.8
323.15 K	116.4
333.15 K	72.97
343.15 K	48.45
353.15 K	33.76
363.15 K	24.48
373.15 K	18.37

Settings	mass density [kg/m3]
293.15 K, 101.33 kPa, Vibrating tube method	1167.3
303.15 K, 101.33 kPa, Vibrating tube method	1160.2
311.4 K, 10000 kPa, Bellows volumetry	1159.3
311.4 K, 20000 kPa, Bellows volumetry	1163.7
311.4 K, 30000 kPa, Bellows volumetry	1168.1
311.4 K, 40000 kPa, Bellows volumetry	1172.2
311.4 K, 50000 kPa, Bellows volumetry	1176.4
311.4 K, 60000 kPa, Bellows volumetry	1180.3
311.4 K, 70000 kPa, Bellows volumetry	1183.9
311.4 K, 80000 kPa, Bellows volumetry	1187.7
311.4 K, 90000 kPa, Bellows volumetry	1191.3
311.4 K, 100000 kPa, Bellows volumetry	1194.7
311.4 K, 110000 kPa, Bellows volumetry	1198.1
311.4 K, 120000 kPa, Bellows volumetry	1201.4
311.4 K, 130000 kPa, Bellows volumetry	1204.7
311.4 K, 140000 kPa, Bellows volumetry	1207.7
311.4 K, 150000 kPa, Bellows volumetry	1210.8
311.4 K, 160000 kPa, Bellows volumetry	1213.7
311.4 K, 170000 kPa, Bellows volumetry	1216.7
311.4 K, 180000 kPa, Bellows volumetry	1219.6
311.4 K, 190000 kPa, Bellows volumetry	1222.5
311.4 K, 200000 kPa, Bellows volumetry	1225.3
313.15 K, 101.33 kPa, Vibrating tube method	1153.4
323.15 K, 101.33 kPa, Vibrating tube method	1146.8
331.3 K, 10000 kPa, Bellows volumetry	1146.1
331.3 K, 20000 kPa, Bellows volumetry	1150.8
331.3 K, 30000 kPa, Bellows volumetry	1155.4
331.3 K, 40000 kPa, Bellows volumetry	1159.8
331.3 K, 50000 kPa, Bellows volumetry	1164.2
331.3 K, 60000 kPa, Bellows volumetry	1168.3
331.3 K, 70000 kPa, Bellows volumetry	1172.1
331.3 K, 80000 kPa, Bellows volumetry	1176
331.3 K, 90000 kPa, Bellows volumetry	1179.6
331.3 K, 100000 kPa, Bellows volumetry	1183.1
331.3 K, 110000 kPa, Bellows volumetry	1186.6
331.3 K, 120000 kPa, Bellows volumetry	1190.1
331.3 K, 130000 kPa, Bellows volumetry	1193.4
331.3 K, 140000 kPa, Bellows volumetry	1196.6
331.3 K, 150000 kPa, Bellows volumetry	1199.8
331.3 K, 160000 kPa, Bellows volumetry	1202.9
331.3 K, 170000 kPa, Bellows volumetry	1205.9
331.3 K, 180000 kPa, Bellows volumetry	1208.9
331.3 K, 190000 kPa, Bellows volumetry	1212.6
331.3 K, 200000 kPa, Bellows volumetry	1214.8
333.15 K, 101.33 kPa, Vibrating tube method	1140.3
343.15 K, 101.33 kPa, Vibrating tube method	1133.7
351.6 K, 10000 kPa, Bellows volumetry	1133.7
351.6 K, 20000 kPa, Bellows volumetry	1138.4
351.6 K, 30000 kPa, Bellows volumetry	1143.3
351.6 K, 40000 kPa, Bellows volumetry	1147.9
351.6 K, 50000 kPa, Bellows volumetry	1152.4
351.6 K, 60000 kPa, Bellows volumetry	1156.7
351.6 K, 70000 kPa, Bellows volumetry	1160.9
351.6 K, 80000 kPa, Bellows volumetry	1164.9
351.6 K, 90000 kPa, Bellows volumetry	1168.6
351.6 K, 100000 kPa, Bellows volumetry	1172.3
351.6 K, 110000 kPa, Bellows volumetry	1175.9
351.6 K, 120000 kPa, Bellows volumetry	1179.7
351.6 K, 130000 kPa, Bellows volumetry	1183.1
351.6 K, 140000 kPa, Bellows volumetry	1186.4
351.6 K, 150000 kPa, Bellows volumetry	1189.6
351.6 K, 160000 kPa, Bellows volumetry	1192.8
351.6 K, 170000 kPa, Bellows volumetry	1196.1
351.6 K, 180000 kPa, Bellows volumetry	1199.1
351.6 K, 190000 kPa, Bellows volumetry	1202.1
351.6 K, 200000 kPa, Bellows volumetry	1205.1
353.15 K, 101.33 kPa, Vibrating tube method	1127.2
363.15 K, 101.33 kPa, Vibrating tube method	1120.7
371.6 K, 10000 kPa, Bellows volumetry	1120.8
371.6 K, 20000 kPa, Bellows volumetry	1126.1
371.6 K, 30000 kPa, Bellows volumetry	1131.3
371.6 K, 40000 kPa, Bellows volumetry	1136.2
371.6 K, 50000 kPa, Bellows volumetry	1140.9
371.6 K, 60000 kPa, Bellows volumetry	1145.4
371.6 K, 70000 kPa, Bellows volumetry	1149.7
371.6 K, 80000 kPa, Bellows volumetry	1153.9
371.6 K, 90000 kPa, Bellows volumetry	1157.9
371.6 K, 100000 kPa, Bellows volumetry	1161.8
371.6 K, 110000 kPa, Bellows volumetry	1165.7
371.6 K, 120000 kPa, Bellows volumetry	1169.4
371.6 K, 130000 kPa, Bellows volumetry	1173.1
371.6 K, 140000 kPa, Bellows volumetry	1176.4
371.6 K, 150000 kPa, Bellows volumetry	1179.7
371.6 K, 160000 kPa, Bellows volumetry	1183
371.6 K, 170000 kPa, Bellows volumetry	1186.3
371.6 K, 180000 kPa, Bellows volumetry	1189.4
371.6 K, 190000 kPa, Bellows volumetry	1192.5
371.6 K, 200000 kPa, Bellows volumetry	1195.6
373.15 K, 101.33 kPa, Vibrating tube method	1114.2

CCn1cc[n+](C)c1.COP(=O)([O-])OC [1-ethyl-3-methylimidazolium dimethylphosphate]
101.33 kPa
Settings	viscosity [mPa·s]
303.15 K	186
313.15 K	107.5
323.15 K	67.1
333.15 K	44.64
343.15 K	31.27
353.15 K	22.85
363.15 K	17.29
373.15 K	13.47

Settings	mass density [kg/m3]
303.15 K, 101.33 kPa, Vibrating tube method	1214.4
312 K, 10000 kPa, Bellows volumetry	1212.6
312 K, 20000 kPa, Bellows volumetry	1216.9
312 K, 30000 kPa, Bellows volumetry	1221
312 K, 40000 kPa, Bellows volumetry	1224.9
312 K, 50000 kPa, Bellows volumetry	1228.8
312 K, 60000 kPa, Bellows volumetry	1232.5
313.15 K, 101.33 kPa, Vibrating tube method	1207.6
323.15 K, 101.33 kPa, Vibrating tube method	1200.9
331.7 K, 10000 kPa, Bellows volumetry	1199.7
331.7 K, 20000 kPa, Bellows volumetry	1204.1
331.7 K, 30000 kPa, Bellows volumetry	1208.5
331.7 K, 40000 kPa, Bellows volumetry	1212.6
331.7 K, 50000 kPa, Bellows volumetry	1216.6
331.7 K, 60000 kPa, Bellows volumetry	1220.4
331.7 K, 70000 kPa, Bellows volumetry	1224.1
331.7 K, 80000 kPa, Bellows volumetry	1227.8
331.7 K, 90000 kPa, Bellows volumetry	1231.3
331.7 K, 100000 kPa, Bellows volumetry	1234.7
331.7 K, 110000 kPa, Bellows volumetry	1238.1
331.7 K, 120000 kPa, Bellows volumetry	1241.3
331.7 K, 130000 kPa, Bellows volumetry	1244.5
331.7 K, 140000 kPa, Bellows volumetry	1247.6
331.7 K, 150000 kPa, Bellows volumetry	1250.8
331.7 K, 160000 kPa, Bellows volumetry	1253.7
331.7 K, 170000 kPa, Bellows volumetry	1256.7
331.7 K, 180000 kPa, Bellows volumetry	1259.5
331.7 K, 190000 kPa, Bellows volumetry	1262.3
331.7 K, 200000 kPa, Bellows volumetry	1265.2
333.15 K, 101.33 kPa, Vibrating tube method	1194.3
343.15 K, 101.33 kPa, Vibrating tube method	1187.6
351.7 K, 10000 kPa, Bellows volumetry	1186.8
351.7 K, 20000 kPa, Bellows volumetry	1191.5
351.7 K, 30000 kPa, Bellows volumetry	1196
351.7 K, 40000 kPa, Bellows volumetry	1200.3
351.7 K, 50000 kPa, Bellows volumetry	1204.5
351.7 K, 60000 kPa, Bellows volumetry	1208.5
351.7 K, 70000 kPa, Bellows volumetry	1212.4
351.7 K, 80000 kPa, Bellows volumetry	1216.2
351.7 K, 90000 kPa, Bellows volumetry	1219.8
351.7 K, 100000 kPa, Bellows volumetry	1223.3
351.7 K, 110000 kPa, Bellows volumetry	1226.9
351.7 K, 120000 kPa, Bellows volumetry	1230.4
351.7 K, 130000 kPa, Bellows volumetry	1233.6
351.7 K, 140000 kPa, Bellows volumetry	1236.9
351.7 K, 150000 kPa, Bellows volumetry	1240
351.7 K, 160000 kPa, Bellows volumetry	1243.2
351.7 K, 170000 kPa, Bellows volumetry	1246.2
351.7 K, 180000 kPa, Bellows volumetry	1249.1
351.7 K, 190000 kPa, Bellows volumetry	1252
351.7 K, 200000 kPa, Bellows volumetry	1255
353.15 K, 101.33 kPa, Vibrating tube method	1181.1
363.15 K, 101.33 kPa, Vibrating tube method	1174.5
372.4 K, 10000 kPa, Bellows volumetry	1174.1
372.4 K, 20000 kPa, Bellows volumetry	1179
372.4 K, 30000 kPa, Bellows volumetry	1182.8
372.4 K, 40000 kPa, Bellows volumetry	1188.3
372.4 K, 50000 kPa, Bellows volumetry	1192.6
372.4 K, 60000 kPa, Bellows volumetry	1196.9
372.4 K, 70000 kPa, Bellows volumetry	1200.9
372.4 K, 80000 kPa, Bellows volumetry	1204.9
372.4 K, 90000 kPa, Bellows volumetry	1208.7
372.4 K, 100000 kPa, Bellows volumetry	1212.4
372.4 K, 110000 kPa, Bellows volumetry	1216
372.4 K, 120000 kPa, Bellows volumetry	1219.5
372.4 K, 130000 kPa, Bellows volumetry	1223
372.4 K, 140000 kPa, Bellows volumetry	1226.3
372.4 K, 150000 kPa, Bellows volumetry	1229.6
372.4 K, 160000 kPa, Bellows volumetry	1232.8
372.4 K, 170000 kPa, Bellows volumetry	1235.9
372.4 K, 180000 kPa, Bellows volumetry	1238.9
372.4 K, 190000 kPa, Bellows volumetry	1242
372.4 K, 200000 kPa, Bellows volumetry	1244.9
373.15 K, 101.33 kPa, Vibrating tube method	1168.1
391.9 K, 10000 kPa, Bellows volumetry	1161.7
391.9 K, 20000 kPa, Bellows volumetry	1166.8
391.9 K, 30000 kPa, Bellows volumetry	1171.8
391.9 K, 40000 kPa, Bellows volumetry	1176.6
391.9 K, 50000 kPa, Bellows volumetry	1181.2
391.9 K, 60000 kPa, Bellows volumetry	1185.6
391.9 K, 70000 kPa, Bellows volumetry	1189.9
391.9 K, 80000 kPa, Bellows volumetry	1194
391.9 K, 90000 kPa, Bellows volumetry	1198
391.9 K, 100000 kPa, Bellows volumetry	1201.8
391.9 K, 110000 kPa, Bellows volumetry	1205.6
391.9 K, 120000 kPa, Bellows volumetry	1209.1
391.9 K, 130000 kPa, Bellows volumetry	1212.7
391.9 K, 140000 kPa, Bellows volumetry	1216.1
391.9 K, 150000 kPa, Bellows volumetry	1219.5
391.9 K, 160000 kPa, Bellows volumetry	1222.8
391.9 K, 170000 kPa, Bellows volumetry	1226
391.9 K, 180000 kPa, Bellows volumetry	1229.1
391.9 K, 190000 kPa, Bellows volumetry	1232.2
391.9 K, 200000 kPa, Bellows volumetry	1235.3
